{"source": "paper PMC9822497", "about": "“Identification of Polyphenol Derivatives as Novel SARS-CoV-2 and DENV Non-Nucleoside RdRp Inhibitors” (Molecules, 2022)", "key": {"[1]": {"system": "SARS-CoV-2", "settings": "cited from earlier work"}, "[2]": {"system": "DENV2", "design": "method as in PMID 34424050", "settings": "DENV2 in vitro; cited from earlier work"}, "[3]": {"system": "DENV3", "design": "method as in PMID 34424050", "settings": "DENV3 in vitro; cited from earlier work"}, "[4]": {"biological_target": "SARS-CoV-2 RdRp complex nsp12/nsp8/nsp7 (Severe acute respiratory syndrome coronavirus 2, UniProt P0DTD1)", "test": "biochemical", "settings": "for inhibition at 50 µM: read-out: Inhibition Rate (%); for IC50: seven concentrations 0.4 to 100 μM, mean ± SD of two independent experiments, read-out: IC50 against SARS-CoV-2 RdRp"}, "[5]": {"system": "SARS-CoV-2", "test": "microbe, parasite or virus in culture", "type": "cell-based", "settings": "for EC50: Severe acute respiratory syndrome coronavirus 2, Vero C1008"}, "[6]": {"test": "in vitro", "settings": "African green monkey"}, "[7]": {"biological_target": "Dengue virus RdRp (DENV NS5) (Dengue virus type 3, UniProt Q6YMS4)", "sequence (Q6YMS4 2491-3390 limits assumed)": "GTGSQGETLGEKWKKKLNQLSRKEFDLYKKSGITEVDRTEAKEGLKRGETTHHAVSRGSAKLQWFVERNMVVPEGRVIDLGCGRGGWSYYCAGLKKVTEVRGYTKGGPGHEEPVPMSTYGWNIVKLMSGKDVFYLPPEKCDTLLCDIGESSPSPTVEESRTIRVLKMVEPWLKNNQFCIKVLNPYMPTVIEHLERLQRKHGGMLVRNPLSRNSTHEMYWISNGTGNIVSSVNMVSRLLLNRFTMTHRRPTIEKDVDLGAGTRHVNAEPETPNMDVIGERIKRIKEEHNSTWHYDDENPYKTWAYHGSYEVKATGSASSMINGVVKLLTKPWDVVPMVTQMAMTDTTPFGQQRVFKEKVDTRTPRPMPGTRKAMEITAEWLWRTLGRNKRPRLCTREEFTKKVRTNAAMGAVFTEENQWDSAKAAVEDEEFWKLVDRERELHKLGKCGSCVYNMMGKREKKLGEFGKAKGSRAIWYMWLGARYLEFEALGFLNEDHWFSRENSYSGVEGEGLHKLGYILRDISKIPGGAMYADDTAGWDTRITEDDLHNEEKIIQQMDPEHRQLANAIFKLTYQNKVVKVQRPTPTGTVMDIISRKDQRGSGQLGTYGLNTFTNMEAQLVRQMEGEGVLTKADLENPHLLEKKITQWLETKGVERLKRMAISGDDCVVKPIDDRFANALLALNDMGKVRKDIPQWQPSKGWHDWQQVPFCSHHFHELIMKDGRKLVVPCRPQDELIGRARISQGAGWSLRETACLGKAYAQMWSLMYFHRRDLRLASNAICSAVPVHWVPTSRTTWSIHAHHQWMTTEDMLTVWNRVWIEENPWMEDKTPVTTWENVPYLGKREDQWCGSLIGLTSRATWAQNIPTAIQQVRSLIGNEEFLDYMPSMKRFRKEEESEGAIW", "test": "Fluorescent plate DENV RdRp assay", "type": "biochemical", "settings": "for IC50: purified recombinant Dengue virus RdRp, average ± SD of 2 independent experiments; for Detectable inhibition towards DENV RdRp: screen of Table 1 compounds", "procedure": "To further exploit pan-RNA virus inhibition of the compounds in Table 1, the compounds were evaluated as potential inhibitors of the RdRp domain of DENV NS5. We used a fluorescent-based assay to screen the compounds from Table 1 as potential DENV RdRp inhibitors.\nExpression and purification of recombinant Dengue virus NS5 has been described previously. Florescent plate assay based on poly rC RNA and the fluorescent dye PicoGreen was well established for screening inhibitors against Dengue virus RdRp activity. RdRp assays were performed in a 60 μL reaction mixture containing 1.5 μM DENV NS5, 1 µg poly rC, 100 μM GTP, various concentrations of compounds, 5% DMSO, 40 mM Tris–HCl (pH 7.0), 2 mM MnCl2, and 5 mM DTT. The reaction was incubated at 30 °C for 60 min and terminated with 10 mM EDTA after which 100 μL of 200-fold diluted fluorescent dye PicoGreen in TE buffer was added to each well and incubated for 5 min at room temperature. Microplate reader was used to quantitate the amount of dsRNA Fluorescence, under excitation and emission wavelengths of 480 and 520 nm, respectively. Dose-response data were analyzed by nonlinear regression using GraphPad Prism 9.2.0 software. The mean of IC50 values and standard deviation (SD) were determined from the results of two independent experiments."}, "[8]": {"system": "DENV3", "test": "DENV3 cell-based qRT-PCR antiviral assay in A549 cells", "settings": "for EC50 / Selective Index: DENV3/A549", "procedure": "The virus DENV3 clinical strain and A549 cells were used in the cell-based qRT-PCR antiviral assays. Evaluation of antiviral activity was performed as described previously. Briefly, cells infected by dengue virus in the presence of 5-fold serial dilutions of compounds were maintained for 72 h. Supernatant was collected and the virus yield was measured by Cells Direct One-step qRT-PCR kit (Thermo Fisher), according to manufacturer’s instructions. Dose-response data were analyzed by nonlinear regression using GraphPad Prism software. The toxicity of compounds was evaluated in standard MTS analysis without virus in A549 cell line. Graphpad Prism 9.2.0 was used to calculate EC50 (half maximal effective concentration) and CC50 (half cytotoxic concentration) values."}, "[9]": {"test": "in vitro", "settings": "human"}, "[10]": {"system": "DENV", "design": "method as in PMID 26574011, PMID 33160000", "settings": "cited from earlier work"}, "[11]": {"settings": "preliminary screening, single concentration of 50 μM"}}, "note": "Where two headings read alike, the source gives them in different places."}
{"molecule": "Bemnifosbuvir", "values": [{"measurement": "EC90", "setting": "[1]", "value": 0.47, "unit": "µM"}, {"measurement": "EC50", "setting": "[2]", "value": 0.48, "unit": "µM"}, {"measurement": "EC50", "setting": "[3]", "value": 0.77, "unit": "µM"}]}
{"molecule": "COc1ccc(CNC(=O)C2CN(S(=O)(=O)c3ccc(N)cc3)CCN2C(=O)c2cc(O)c(O)c(O)c2)cc1", "note": "(centres unmarked) [DF-35]", "values": [{"measurement": "inhibition at 50 µM", "setting": "[4]", "value": 81, "unit": "%"}, {"measurement": "melting point", "value": "192 to 195", "unit": "°C"}]}
{"molecule": "Nc1ccc(S(=O)(=O)N2CCN(C(=O)c3cc(O)c(O)c(O)c3)CC2C(=O)NCc2cccs2)cc1", "note": "(centres unmarked) [DF-68]", "values": [{"measurement": "inhibition at 50 µM", "setting": "[4]", "value": 73, "unit": "%"}, {"measurement": "melting point", "value": "213 to 216", "unit": "°C"}]}
{"molecule": "CC(C)(C)OC(=O)N1CCC2(CCN(C(=O)C3CN(C(=O)c4cc(O)c(O)c(O)c4)CCN3S(=O)(=O)c3ccc(N)cc3)C2)C1", "note": "(centres unmarked) [DF-71]", "values": [{"measurement": "inhibition at 50 µM", "setting": "[4]", "value": 70, "unit": "%"}, {"measurement": "melting point", "value": "192 to 195", "unit": "°C"}]}
{"molecule": "O=C(O)[C@H]1O[C@@H](Oc2cc3oc(-c4ccccc4)cc(=O)c3c(O)c2O)[C@H](O)[C@@H](O)[C@@H]1O", "note": "[Baicalin]", "values": [{"measurement": "EC50", "setting": "[1]; SARS-CoV-2 inhibitors", "value": 9, "unit": "µM"}]}
{"molecule": "Nc1ccc(S(=O)(=O)N2CCN(C(=O)c3cc(O)c(O)c(O)c3)CC2C(=O)NCc2ccc(-c3ccccc3)cc2)cc1", "note": "(centres unmarked) [DF-69]", "values": [{"measurement": "inhibition at 50 µM", "setting": "[4]", "value": 72, "unit": "%"}, {"measurement": "melting point", "value": "192 to 195", "unit": "°C"}]}
{"molecule": "CC(C)C(=O)OC[C@H]1O[C@@H](n2ccc(NO)nc2=O)[C@H](O)[C@@H]1O", "note": "[Molnupiravir]", "values": [{"measurement": "EC50", "setting": "[1]; nucleoside RdRp inhibitors", "value": 0.3, "unit": "µM"}]}
{"molecule": "O=c1cc(-c2ccccc2)oc2cc(O)c(O)c(O)c12", "note": "[Baicalein, reference compound]", "values": [{"measurement": "Inhibition of RdRp activity at 10 μM (gel)", "setting": "[4]", "value": "remained partially active"}, {"measurement": "Selective Index", "setting": "[5]", "value": 19.1}, {"measurement": "EC50", "setting": "[5]", "value": 4.5, "unit": "µM"}, {"measurement": "CC50", "setting": "[6]", "value": 86, "unit": "µM"}]}
{"molecule": "COc1ccc(CNC(=O)C2CN(C(=O)c3cc(O)c(O)c(O)c3)CCN2S(=O)(=O)c2ccc(N)cc2)cc1", "note": "(centres unmarked) [DF-64]", "values": [{"measurement": "inhibition at 50 µM", "setting": "[4]", "value": 80, "unit": "%"}, {"measurement": "melting point", "value": "202 to 205", "unit": "°C"}]}
{"molecule": "Nc1ccc(S(=O)(=O)N2CCN(C(=O)c3cc(O)c(O)c(O)c3)C(C(=O)NCc3ccco3)C2)cc1", "note": "(centres unmarked) [DF-36]", "values": [{"measurement": "Inhibition of RdRp activity at 10 μM (gel)", "setting": "[4]", "value": "remained partially active"}, {"measurement": "inhibition at 50 µM", "setting": "[4]", "value": 87, "unit": "%"}, {"measurement": "melting point", "value": "181 to 184", "unit": "°C"}]}
{"molecule": "Nc1ccc(S(=O)(=O)N2CCN(C(=O)c3cc(O)c(O)c(O)c3)C(C(=O)NCc3ccc(-c4ccccc4)cc3)C2)cc1", "note": "(centres unmarked) [DF-47]", "values": [{"measurement": "Inhibition of RdRp activity at 10 μM (gel)", "setting": "[4]", "value": "remained partially active"}, {"measurement": "inhibition at 50 µM", "setting": "[4]; [11]", "value": 92, "unit": "%"}, {"measurement": "IC50", "setting": "[4]", "value": "9.2 ± 1.1", "unit": "µM"}, {"measurement": "IC50", "setting": "[7]", "value": "14 ± 2.3", "unit": "µM"}, {"measurement": "Detectable inhibition towards DENV RdRp", "setting": "[7]", "value": "detectable inhibition"}, {"measurement": "Antiviral activity against SARS-CoV-2 in vitro", "setting": "[5]", "value": "no significant antiviral activity"}, {"measurement": "EC50", "setting": "[5]", "value": "> 100", "unit": "µM"}, {"measurement": "Inhibition of DENV3 in A549 cells", "setting": "[8]", "value": "moderate inhibition"}, {"measurement": "EC50", "setting": "[8]", "value": "51.9 ± 26.3", "unit": "µM"}, {"measurement": "Selective Index", "setting": "[8]", "value": ">1.9"}, {"measurement": "melting point", "value": "193 to 196", "unit": "°C"}, {"measurement": "CC50", "setting": "[6]", "value": "> 100", "unit": "µM"}, {"measurement": "CC50", "setting": "[9]", "value": "> 100", "unit": "µM"}]}
{"molecule": "CCC(CC)COC(=O)[C@H](C)N[P@](=O)(OC[C@H]1O[C@@](C#N)(c2ccc3c(N)ncnn23)[C@H](O)[C@@H]1O)Oc1ccccc1", "note": "[Remdesivir, reference compound]", "values": [{"measurement": "EC50", "setting": "[5]", "value": "0.046 ± 0.0002", "unit": "µM"}, {"measurement": "CC50", "setting": "[6]", "value": 10.1, "unit": "µM"}]}
{"molecule": "N#Cc1ccc(S(=O)(=O)N2CCN(C(=O)c3cc(O)c(O)c(O)c3)C(C(=O)NCc3ccc(-c4ccccc4)cc3)C2)cc1", "note": "(centres unmarked) [DF-51]", "values": [{"measurement": "Inhibition of RdRp activity at 10 μM (gel)", "setting": "[4]", "value": "remained partially active"}, {"measurement": "inhibition at 50 µM", "setting": "[4]; [11]", "value": 90, "unit": "%"}, {"measurement": "IC50", "setting": "[4]", "value": "22 ± 1.3", "unit": "µM"}, {"measurement": "IC50", "setting": "[7]", "value": "4.8 ± 0.7", "unit": "µM"}, {"measurement": "Detectable inhibition towards DENV RdRp", "setting": "[7]", "value": "detectable inhibition"}, {"measurement": "Antiviral activity against SARS-CoV-2 in vitro", "setting": "[5]", "value": "no significant antiviral activity"}, {"measurement": "EC50", "setting": "[5]", "value": "> 89", "unit": "µM"}, {"measurement": "Inhibition of DENV3 in A549 cells", "setting": "[8]", "value": "moderate inhibition"}, {"measurement": "EC50", "setting": "[8]", "value": "21.5 ± 14.9", "unit": "µM"}, {"measurement": "Selective Index", "setting": "[8]", "value": ">4.6"}, {"measurement": "CC50", "setting": "[6]", "value": "> 100", "unit": "µM"}, {"measurement": "CC50", "setting": "[9]", "value": "> 100", "unit": "µM"}]}
{"molecule": "Nc1ccc(S(=O)(=O)N2CCN(C(=O)c3cc(O)c(O)c(O)c3)CC2C(=O)Nc2ccccc2)cc1", "note": "(centres unmarked) [DF-57]", "values": [{"measurement": "inhibition at 50 µM", "setting": "[4]", "value": 85, "unit": "%"}, {"measurement": "melting point", "value": "173 to 176", "unit": "°C"}]}
{"molecule": "Nc1ccc(S(=O)(=O)N2CCN(C(=O)c3cc(O)c(O)c(O)c3)CC2C(=O)NCc2cccc3ccccc23)cc1", "note": "(centres unmarked) [DF-67]", "values": [{"measurement": "inhibition at 50 µM", "setting": "[4]", "value": 83, "unit": "%"}, {"measurement": "melting point", "value": "189 to 192", "unit": "°C"}]}
{"molecule": "O=C(NO)c1ncc(CS(=O)(=O)c2ccccc2)c(CO)c1O", "note": "[DMB220]", "values": [{"measurement": "EC50", "setting": "[10]", "value": "2.7 ± 0.6", "unit": "µM"}]}
{"molecule": "CN(C(=O)C1CN(C(=O)c2cc(O)c(O)c(O)c2)CCN1S(=O)(=O)c1ccc(N)cc1)c1ccccc1", "note": "(centres unmarked) [DF-63]", "values": [{"measurement": "inhibition at 50 µM", "setting": "[4]", "value": 75, "unit": "%"}, {"measurement": "melting point", "value": "172 to 175", "unit": "°C"}]}
